Data reported in US12281149B2, “Modulators of G-protein coupled receptors” (priority 2021, dated 2025).
*1 amine or outer side, *2 acyl side, *3 side chain or, on linkers, in order; H or OH if unused. Where a SMILES comes first, the peptide text is derived from it. Side-chain parts run from the residue outwards. [ ]: non-standard residue; d: D form. The star is where a group is joined. Isobutyryl(2-(3-CN-5-F-Ph)) = CC(C)(C(=O)*)c1cc(F)cc(C#N)c1; C20 diacid = O=C(O)CCCCCCCCCCCCCCCCCCC(=O)*; γGlu = O=C(O)[C@H](CCC(=O)[*:2])N[*:1]; Phe(2-F) = N[C@@H](Cc1ccccc1F)C(=O)O; X27 = O=C1CC(C(=O)*)(c2ccccc2)CN1; AEEA = NCCOCCOCC(=O)O; Aib = CC(C)(N)C(=O)O; βAla = NCCC(=O)O

Legend:
Type in all cases: cell-based
[1] = target: T1, GLP-1 receptor (Homo sapiens, UniProt P43220); assay: PathHunter β-arrestin assay, GLP-1 receptor; set-up: host or cells: PathHunter CHO-K1 GLP1R β-Arrestin Cell Line; details: β-arrestin-2 recruitment, PathHunter CHO-K1 GLP1R β-Arrestin Cell Line, 90 min at 37° C.; normalized to GLP-1; read-out: GLP-1R β Arrestin EC50
[2] = target: T2, GIP receptor (Homo sapiens, UniProt P48546); assay: PathHunter β-arrestin assay, GIP receptor; set-up: host or cells: PathHunter CHO-K1 GIPR β-Arrestin Cell Line; details: β-arrestin-2 recruitment, PathHunter CHO-K1 GIPR β-Arrestin Cell Line, 90 min at 37° C.; normalized to GIP; read-out: GIPR β Arrestin EC50
T2 sequence (P48546 22-466): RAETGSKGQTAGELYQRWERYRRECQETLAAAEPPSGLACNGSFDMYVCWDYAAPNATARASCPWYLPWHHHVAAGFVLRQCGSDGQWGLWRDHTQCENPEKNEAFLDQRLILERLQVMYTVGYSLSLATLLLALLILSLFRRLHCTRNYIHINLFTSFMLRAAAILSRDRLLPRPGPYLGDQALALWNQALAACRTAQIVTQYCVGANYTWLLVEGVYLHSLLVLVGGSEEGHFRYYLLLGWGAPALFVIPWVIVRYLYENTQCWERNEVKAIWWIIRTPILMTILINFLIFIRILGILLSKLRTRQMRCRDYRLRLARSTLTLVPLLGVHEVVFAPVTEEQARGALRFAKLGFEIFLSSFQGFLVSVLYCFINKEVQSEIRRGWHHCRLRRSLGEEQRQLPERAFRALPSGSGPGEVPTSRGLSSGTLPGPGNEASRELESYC

[3] = target: T1, GLP-1 receptor; assay: HitHunter cAMP assay, GLP-1 receptor; details: for EC50: CHO cells stably expressing human GLP-1 receptor, cAMP accumulation, 30 min, read-out: EC50 GLP-1R; for Emax: CHO cells, cAMP, normalized to maximum signal from GLP-1 (high) and DMSO (low), read-out: Emax GLP-1R
[4] = target: T2, GIP receptor; assay: HitHunter cAMP assay, GIP receptor; details: for EC50: CHO cells stably expressing GIP receptor, cAMP accumulation, 30 min, read-out: EC50 GIP-1R; for Emax: CHO cells, cAMP, normalized to maximum signal from GIP (high) and DMSO (low), read-out: Emax GIP-1R

T1 sequence (P43220 24-463): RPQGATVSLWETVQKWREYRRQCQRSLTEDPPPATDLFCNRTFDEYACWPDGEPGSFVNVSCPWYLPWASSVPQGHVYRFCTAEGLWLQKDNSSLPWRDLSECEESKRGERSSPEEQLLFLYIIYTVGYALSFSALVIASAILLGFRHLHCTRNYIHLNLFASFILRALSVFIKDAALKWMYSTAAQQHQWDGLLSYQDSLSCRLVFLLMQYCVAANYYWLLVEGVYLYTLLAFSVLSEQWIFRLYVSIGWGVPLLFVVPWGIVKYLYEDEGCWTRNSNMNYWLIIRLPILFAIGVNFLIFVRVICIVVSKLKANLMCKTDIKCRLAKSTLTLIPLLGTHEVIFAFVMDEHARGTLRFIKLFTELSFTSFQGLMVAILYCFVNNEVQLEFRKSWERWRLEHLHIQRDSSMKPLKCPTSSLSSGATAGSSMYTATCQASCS

Row | Compound | EC50 [1] [nM] | EC50 [2] [nM] | EC50 [3] [nM] | Emax [3] [%] | EC50 [4] [nM] | Emax [4] [%]
1 | CC[C@H](C)[C@H](NC(=O)[C@H](CC(C)C)NC(=O)[C@H](Cc1c[nH]c2ccccc12)NC(=O)[C@H](CCC(N)=O)NC(=O)[C@@H](NC(=O)[C@H](Cc1ccccc1)NC(=O)[C@H](C)NC(=O)[C@H](CCCCNC(=O)COCCOCCNC(=O)COCCOCCNC(=O)CC[C@H](NC(=O)CCCCCCCCCCCCCCCCCCC(=O)O)C(=O)O)NC(=O)[C@H](CCC(N)=O)NC(=O)[C@H](C)NC(=O)[C@@H](NC(=O)[C@H](CCCCN)NC(=O)[C@H](CC(=O)O)NC(=O)[C@H](CC(C)C)NC(=O)C(C)(C)NC(=O)[C@@H](NC(=O)[C@H](CO)NC(=O)[C@H](Cc1ccc(O)cc1)NC(=O)[C@H](CC(=O)O)NC(=O)[C@H](CO)NC(=O)[C@@H](NC(=O)[C@H](Cc1ccccc1)NC(=O)[C@@H](NC(=O)CNC(=O)[C@@H](CC(=O)O)NC(=O)CCNC(=O)C1(c2ccccc2)CNC(=O)C1)[C@@H](C)O)[C@@H](C)O)[C@@H](C)CC)[C@@H](C)CC)C(C)C)C(=O)N[C@@H](C)C(=O)NCC(=O)NCC(=O)N1CCC[C@H]1C(=O)N[C@@H](CO)C(=O)N[C@@H](CO)C(=O)NCC(=O)N[C@@H](C)C(=O)N1CCC[C@H]1C(=O)N1CCC[C@H]1C(=O)N1CCC[C@H]1C(=O)N[C@@H](CO)C(N)=O (stereo partly drawn) [Compound 122] ({X27-βAla}-[dD]GTFTSDYSI[Aib]LDKIAQK([AEEA-AEEA-γGlu-C20 diacid])AFVQWLIAGGPSSGAPPPS-NH2) | > 1000 | < 1000 | 1 to 10 | 100 | 10 to 100 | 92
2 | CC[C@H](C)[C@H](NC(=O)[C@H](CC(C)C)NC(=O)[C@H](Cc1c[nH]c2ccccc12)NC(=O)[C@H](CCC(N)=O)NC(=O)[C@@H](NC(=O)[C@H](Cc1ccccc1)NC(=O)[C@H](C)NC(=O)[C@H](CCCCNC(=O)COCCOCCNC(=O)COCCOCCNC(=O)CC[C@H](NC(=O)CCCCCCCCCCCCCCCCCCC(=O)O)C(=O)O)NC(=O)[C@H](CCC(N)=O)NC(=O)[C@H](C)NC(=O)[C@@H](NC(=O)[C@H](CCCCN)NC(=O)[C@H](CC(=O)O)NC(=O)[C@H](CC(C)C)NC(=O)C(C)(C)NC(=O)[C@@H](NC(=O)[C@H](CO)NC(=O)[C@H](Cc1ccc(O)cc1)NC(=O)[C@H](CC(=O)O)NC(=O)[C@H](CO)NC(=O)[C@@H](NC(=O)[C@H](Cc1ccccc1F)NC(=O)[C@@H](NC(=O)CNC(=O)[C@H](CCC(=O)O)NC(=O)CCNC(=O)C(C)(C)c1cc(F)cc(C#N)c1)[C@@H](C)O)[C@@H](C)O)[C@@H](C)CC)[C@@H](C)CC)C(C)C)C(=O)N[C@@H](C)C(=O)NCC(=O)NCC(=O)N1CCC[C@H]1C(=O)N[C@@H](CO)C(=O)N[C@@H](CO)C(=O)NCC(=O)N[C@@H](C)C(=O)N1CCC[C@H]1C(=O)N1CCC[C@H]1C(=O)N1CCC[C@H]1C(=O)N[C@@H](CO)C(N)=O [Compound 233] ({Isobutyryl(2-(3-CN-5-F-Ph))-βAla}-EGT[Phe(2-F)]TSDYSI[Aib]LDKIAQK([AEEA-AEEA-γGlu-C20 diacid])AFVQWLIAGGPSSGAPPPS-NH2) | > 1000 | < 1000 | 0.1 to 1 | 121 | 0.1 to 1 | 109
